From patent US20020137929A1, “1 - (3-heterocyclylphenyl) isothiourea, -isourea, -guanidine and -amidine herbicidal agents” (Intellectual Property Department, BASF Aktiengesellschaft, priority 1998, published 2002)

Columns and labels:
[1] = tested on: TRZAWR (Wheat, Winter, cv Riband); assay: Preemergence herbicidal evaluation; assay type: in vivo, Triticum aestivum; conditions: rated 4-5 weeks after treatment, rating scale 0-9
Procedure, shortened: (§1)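 In this greenhouse assay, monocot and dicot seeds are planted in soil and treated prior to emergence with an aqueous acetone spray (about 0.0156-0.500 kg/ha). Plants are assessed visually against control on a 0-9 scale after 4-5 weeks.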

[2] = tested on: SAGPY (Arrowhead (Pygmaea)); assay: Preemergence weed control under flooded paddy conditions; assay type: in vivo, Sagittaria pygmaea; conditions: rated 3-4 weeks after treatment
Procedure, shortened: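 Flooded-pot preemergence screen with silt loam and seeds in the upper 0.5 cm. Dose about 0.0313 to 0.500 kg/ha, delivered into flood water; visual 0-9 score after 3 to 4 weeks.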

[3] = tested on: ECHORC (Watergrass (Calif.)); assay: as above; assay type: in vivo, Echinochloa oryzoides; conditions: rated 3-4 weeks after treatment
Procedure, shortened: (§2)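 Silt loam, seeds in top 0.5 cm; flood held 1.5-3 cm; test cpd as acetone/water 50/50 into flood water, ~0.0313-0.500 kg/ha a.i.; greenhouse 3-4 wk; visual 0-9 score vs control.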

ORYSAT (Rice, Tebonnet) = assay: Rice tolerance to post-transplant applications, flooded paddy conditions (Table III); assay type: in vivo, Oryza sativa, (L.) Tebonnet; conditions: in vivo
Procedure: Results of herbicide evaluation are expressed on a rating scale (0-9). The scale is based upon a visual observation of plant stand, vigor, malformation, size, chlorosis and overall plant appearance as compared with a control.
The tolerance of transplanted rice to post-transplanted herbicide applications is determined as follows: two ten-day-old rice seedlings (cv. Tebonnet) are transplanted into silt loam soil in 32 oz. plastic containers with a diameter of 10.5 cm and no drainage holes. After transplanting, the containers are flooded and the water level is maintained at 1.5 to 3 cm above the soil surface. Three days after transplanting, the flooded soil surface of the containers is treated with the selected aqueous/acetone 50/50 v/v mixture containing the test compounds to provide the equivalent of about 0.0313 to 0.500 kg/ha of active ingredient. The treated containers are placed on greenhouse benches, watered such that the water level is maintained as stated above, and cared for in accordance with conventional greenhouse procedures. Three to four weeks after treatment, the test is terminated and each container is examined and herbicidal effect rated according to the rating system provided in Example 37. The compounds evaluated are reported by compound number given in Example 37.
Plant species employed in this example are reported by header abbreviation, common name and scientific name.

CYPIR (Rice Flatsedge) = assay: Preemergence weed control under flooded paddy conditions; assay type: in vivo, Cyperus iria; conditions: rated 3-4 weeks after treatment
Procedure, shortened: as §2

ABUTH (Velvetleaf) = assay: Preemergence herbicidal evaluation; assay type: in vivo, Abutilon theophrasti; conditions: rated 4-5 weeks after treatment, rating scale 0-9
Procedure, shortened: as §1

Row | Compound | Preemergence herbicidal rating TRZAWR ([1]; rate 0.0313 kg/ha) | Preemergence herbicidal rating TRZAWR ([1]; rate 0.0625 kg/ha) | Preemergence herbicidal rating TRZAWR ([1]; rate 0.1250 kg/ha) | Preemergence herbicidal rating TRZAWR ([1]; rate 0.2500 kg/ha) | herbicidal effect rating, SAGPY ([2]; 0.0313 kg/ha) | herbicidal effect rating, SAGPY ([2]; 0.0625 kg/ha) | herbicidal effect rating, SAGPY ([2]; 0.1250 kg/ha) | herbicidal effect rating, SAGPY ([2]; 0.2500 kg/ha) | herbicidal effect rating, ECHORC ([3]; 0.0313 kg/ha) | herbicidal effect rating, ECHORC ([3]; 0.0625 kg/ha) | herbicidal effect rating, ECHORC ([3]; 0.1250 kg/ha) | herbicidal effect rating, ECHORC ([3]; 0.2500 kg/ha) | herbicidal effect rating, ORYSAT (rice tolerance) (ORYSAT (Rice, Tebonnet)) | herbicidal effect rating, CYPIR (CYPIR (Rice Flatsedge); 0.0313 kg/ha) | herbicidal effect rating, CYPIR (CYPIR (Rice Flatsedge); 0.0625 kg/ha) | herbicidal effect rating, CYPIR (CYPIR (Rice Flatsedge); 0.1250 kg/ha) | herbicidal effect rating, CYPIR (CYPIR (Rice Flatsedge); 0.2500 kg/ha) | Preemergence herbicidal rating ABUTH (ABUTH (Velvetleaf); rate 0.0313 kg/ha) | Preemergence herbicidal rating ABUTH (ABUTH (Velvetleaf); rate 0.1250 kg/ha) | Preemergence herbicidal rating ABUTH (ABUTH (Velvetleaf); rate 0.2500 kg/ha) | also measured
1 | Cn1c(C(F)(F)F)cc(=O)n(-c2cc(N=C3SCC(=O)N3Cc3ccc(C(F)(F)F)cc3)c(Cl)cc2F)c1=O [Compound 141, 3-{4-Chloro-2-fluoro-5-{{3-[p-(trifluoromethyl)benzyl]-4-oxo-2-thiazolidinylidene}-amino}phenyl}-1-methyl-6-(trifluoromethyl)-2,4 (1H, 3H)-pyrimidinedione] | 0.0 | 0.0 | 0.0 | 0.0 | 4.0 | 5.0 | 5.0 | 6.0 | 5.0 | 5.0 | 7.0 | 7.0 | 0.0 | 4.0 | 5.0 | 6.0 | 6.0 | 0.0 | 4.0 | 9.0 | Preemergence herbicidal rating TRZAWR ([1]; rate 0.0156 kg/ha): 0.0; Preemergence herbicidal rating ABUTH (ABUTH (Velvetleaf); rate 0.0156 kg/ha): 0.0; Preemergence herbicidal rating ABUTH (ABUTH (Velvetleaf); rate 0.0625 kg/ha): 0.0
2 | Cc1ccc(CN2C(=O)CSC2=Nc2cc(-n3c(=O)cc(C(F)(F)F)n(C)c3=O)c(F)cc2Cl)cc1Cl [Compound 149, 3-{4-Chloro-5-{[3-(3-chloro-4-methylbenzyl)-4-oxo-2-thiazolidinylidene]amino}-2-fluorophenyl}-1-methyl-6-(trifluoromethyl)-2,4(1H,3H)-pyrimidinedione] | – | – | 0.0 | 2.0 | 0.0 | 2.0 | 3.0 | 3.0 | 2.0 | 3.0 | 6.0 | 7.0 | 0.0 | 3.0 | 4.0 | 7.0 | 4.0 | – | 3.0 | 7.0 | –
3 | CCOC(=O)CN1C(=O)C(COC)SC1=Nc1cc(-n2c(=O)cc(C(F)(F)F)n(C)c2=O)c(F)cc1Cl (stereo not shown) [Compound 156, Ethyl 2-{{2-chloro-5-[3,6-dihydro-3-methyl-2,6-dioxo-4-(trifluoromethyl)-1(2H)-pyrimidinyl]-4-fluorophenyl}imino}-5-(methoxymethyl)-4-oxo-3-thiazolidine-acetate] | 0.0 | 0.0 | 0.0 | 3.0 | – | – | – | 0.0 | – | – | – | 0.0 | 3.0 | – | – | – | 0.0 | 4.0 | 9.0 | 9.0 | Preemergence herbicidal rating ABUTH (ABUTH (Velvetleaf); rate 0.0625 kg/ha): 9.0
